Results from patent US20170100353A1, “COMPOSITIONS AND METHODS THAT TARGET OLFACTORY RECEPTORS FOR REGULATION OF BREATHING” (The Board of Trustees of the Leland Stanford Junio, priority 2015, published 2017).
Like-named read-outs stand apart in the source and are kept apart here.

Tests used:
[1] = target: T1, OR51E1 (Homo sapiens, UniProt Q8TCB6); settings: another study and a more recent study; cited from earlier work
T1 sequence (Q8TCB6 1-318): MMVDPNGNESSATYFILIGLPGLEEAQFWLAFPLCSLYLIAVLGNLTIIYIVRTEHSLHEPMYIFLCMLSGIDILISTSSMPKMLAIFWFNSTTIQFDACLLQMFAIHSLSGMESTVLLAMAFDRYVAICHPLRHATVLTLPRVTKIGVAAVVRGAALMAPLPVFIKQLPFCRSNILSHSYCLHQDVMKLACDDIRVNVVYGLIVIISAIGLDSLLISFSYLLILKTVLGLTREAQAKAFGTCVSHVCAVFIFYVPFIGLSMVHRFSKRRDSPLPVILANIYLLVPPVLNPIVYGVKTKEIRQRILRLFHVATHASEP

[2] = target: T2, Olfr78 (Mus musculus, UniProt Q8VBV9); experiment: Luciferase dual reporter assay of Olfr78 expressed in HEK293T cells; assay type: cell-based
T2 construct: host or cells: HEK293T
T2 sequence (Q8VBV9 1-320): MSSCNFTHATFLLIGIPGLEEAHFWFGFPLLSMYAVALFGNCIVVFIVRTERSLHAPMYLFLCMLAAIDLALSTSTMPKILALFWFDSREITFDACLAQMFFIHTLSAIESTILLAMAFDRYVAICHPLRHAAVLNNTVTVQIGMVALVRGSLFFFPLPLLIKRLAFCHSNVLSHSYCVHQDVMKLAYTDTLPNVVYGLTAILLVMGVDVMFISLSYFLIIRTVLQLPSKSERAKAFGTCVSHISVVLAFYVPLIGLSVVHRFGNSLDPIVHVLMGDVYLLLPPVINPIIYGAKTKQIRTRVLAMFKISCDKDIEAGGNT
Text: pCl-Rho-Olfr78 plasmid construction and expression. The pCl-Rho-Olfr78 plasmid was made by PCR amplifying the Olfr78 coding region from a pCMV6-Olfr78 plasmid (OriGene) using forward primer 5′-[…]-3′ and reverse primer 5′-[…]-3′, adding EcoR1 and Not1 restriction sites. The Olfr78 PCR fragment was then digested with EcoR1 and Not1 and cloned into a pCl-Rho backbone cut from a pCl-Rho-Olfr62 plasmid (gift of Hiroaki Matsunami, Duke University). […] Cytoplasmic GFP (co-transfection marker) was expressed from a TBC1 D25::eGFP plasmid (gift of Suzanne Pfeffer, Stanford University).
Luciferase assay. HEK293T cells were grown and seeded into 96 well plates. On the next day, cells were transfected with RTP1S, Gα15-olf (gifts of Hiroaki Matsunami, Duke University), pCMV6-Ric8b (Origene), pCRE-Luc (Agilent), and pSV40-RL (Promega) plasmids and either pCl-Rho-Olfr78 or pCl (Promega). The Rho tag on Olfr78 and RTP1S were used to enhance localization of Olfr78 to the plasma membrane. Gα15-olf and Ric8b were included as downstream effectors that couple to ORs to increase cAMP production upon OR activation. Two transcriptional luciferase reporters, one constitutive (Renilla, pSV40-RL) and one inducible by cAMP (firefly, pCRE-Luc) were transfected to report increased cAMP levels upon OR activation.
Five hours after transfection, media was decanted and replaced with 50 μL/well MEM without phenol red (Life Technologies). After thirty minutes, 25 μL of chemicals were added to each well to achieve the indicated final concentrations, and cells were incubated for 2 hours. Sodium salts of chloride, L-lactate, propionate, and acetate (Sigma) were used.
Reagents to detect firefly and Renilla luciferase activity (Dual-Glo Luciferase Assay System, Promega) were added at 20 μl/well. Luminescence was measured using an Infinite M1000 (Tecan) microplate reader and data acquired by Magellan Data Analysis Software (Tecan). Two readings were collected for each plate and luciferase reagent, and firefly to Renilla ratios were averaged. Data was from experiments conducted over three days. For dose response curves in FIG. 4a and FIGS. 11d-f, ratios were normalized to the highest and lowest average values for a given condition across all plates on each day.
Data analysis and statistics. Data analysis and statistical tests were performed using Microsoft Excel and GraphPad software. GraphPad Prism 6 was used to fit dose-response curves using a variable slope model and to calculate EC50 values. All data are biological replicates, and quantitative data with error bars are presented as mean±standard error of the mean (s.e.m.) with the exception of FIG. 11c, which is presented as percent±standard error of percentage. […] No statistical method was used to predetermine sample size.

[3] = system: carotid body; experiment: Carotid sinus nerve recordings (carotid body sensory activity); set-up: species or system mouse; settings: 30 mM, PO2=625 mmHg; for Carotid sinus nerve activity, Olfr78-/- mutants: Olfr78-/- mutant nerves; for Carotid sinus nerve activity, Olfr78+/+: wild-type Olfr78+/+ preparations
[4] = target: T2, Olfr78; settings: cited from earlier work
[5] = target: T3, OR51E2 (Homo sapiens, UniProt Q9H255); settings: cited from earlier work
T3 construct: host or cells: HEK293T
T3 sequence (Q9H255 1-320): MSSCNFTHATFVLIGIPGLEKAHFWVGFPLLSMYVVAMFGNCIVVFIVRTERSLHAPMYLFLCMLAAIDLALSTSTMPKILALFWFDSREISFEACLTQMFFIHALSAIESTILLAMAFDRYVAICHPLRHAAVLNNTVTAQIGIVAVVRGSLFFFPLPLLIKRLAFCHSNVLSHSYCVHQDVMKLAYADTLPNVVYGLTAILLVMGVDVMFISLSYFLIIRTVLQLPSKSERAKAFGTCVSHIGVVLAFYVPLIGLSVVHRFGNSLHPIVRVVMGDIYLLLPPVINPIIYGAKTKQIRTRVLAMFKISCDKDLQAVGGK

[6] = target: T1, OR51E1; settings: screen of 93 named compounds; cited from earlier work
[7] = system: carotid body glomus cells; experiment: Calcium imaging of GCaMP3-expressing carotid body glomus cells; assay type: cell-based, mouse; settings: lactate 30 mM, cyanide 2 mM; whole carotid bodies and slice preparations; hyperoxia
[8] = target: Olfr558 (Mus musculus, UniProt Q8VGZ7); settings: screen of 93 named compounds; cited from earlier work
[9] = target: T3, OR51E2; settings: screen of 93 named compounds; cited from earlier work
[10] = heterologous expression in HEK293T cells, same range of concentrations
[11] = study looking at Olfr78 and OR51E2

Chain of Olfr558 (Q8VGZ7 entry or part of it): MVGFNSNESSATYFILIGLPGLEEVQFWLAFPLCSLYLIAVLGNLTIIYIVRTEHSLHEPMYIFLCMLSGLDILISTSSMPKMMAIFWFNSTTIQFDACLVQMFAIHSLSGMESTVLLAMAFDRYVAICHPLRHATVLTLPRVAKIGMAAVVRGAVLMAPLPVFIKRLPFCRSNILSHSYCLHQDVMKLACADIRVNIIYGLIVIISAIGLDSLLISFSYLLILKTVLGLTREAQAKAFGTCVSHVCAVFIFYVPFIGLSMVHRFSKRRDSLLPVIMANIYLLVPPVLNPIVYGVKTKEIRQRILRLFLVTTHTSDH

| SMILES | Agonist activity at OR51E1 [1] | Activation of Olfr78 (in words) [2, 10] | Carotid sinus nerve activity, Olfr78-/- mutants [3] | Carotid sinus nerve activity, Olfr78+/+ [3] | further results |
| --- | --- | --- | --- | --- | --- |
| CCC(C)CC(=O)O (stereo not drawn) [3-methyl-valeric acid] | agonists |  |  |  |  |
| CC(C)CCC(=O)O [4-methyl-valeric acid] | agonists |  |  |  |  |
| Cl [Chloride ion, chloride] |  |  |  |  | Activation of Olfr78 (in words) [2]: no effect |
| CC(=O)O [acetate] |  | stimulated Olfr78 | little effect | stimulate carotid sinus nerve activity | Agonist activity at Olfr78 [4, 11]: agonists; Agonist activity at OR51E2 [5, 11]: agonists |
| CCCCOC(=O)C(C)OC(=O)CCC (stereo not drawn) [butyl butylryllactate] |  |  |  |  | Agonist activity at OR51E1 in chemical screen [6]: activated |
| O=CO [formate] |  |  |  |  | Agonist activity at Olfr78 [4]: not; Agonist activity at OR51E2 [5]: not |
| CC(C)CC(=O)O [isovaleric acid] | activated |  |  |  |  |
| CC(O)C(=O)O (stereo not drawn) [lactate, 2-hydroxypropanoic acid] |  | activated Olfr78 in a dose-dependent manner | little response | increased carotid sinus nerve activity | EC50 ([2]; heterologous expression in HEK293T cells, sodium salts, 2 hours stimulation, read-out: EC50 for activation of Olfr78): 4 mM; Calcium response of glomus cells [7]: induced calcium transients |
| CCCCCCCCC(=O)O [nonanoic acid] | activated |  |  |  | Agonist activity at OR51E1 in chemical screen [6]: activated; Agonist activity at Olfr558 in chemical screen [8]: activated |
| CCC(=O)O [propionate, propionic acid] | activated | stimulated Olfr78 | little effect | stimulate carotid sinus nerve activity | Agonist activity at Olfr78 [4, 11]: agonists; Agonist activity at OR51E2 [5, 11]: agonists; Agonist activity at OR51E2 in chemical screen [9]: specifically activated |
